Test [1] relates to IFNγ induced STAT1 phosphorylation. As to the kind of experiment: IFNγ induced STAT1 phosphorylation in CD14+ monocytes of PBMC. The class given is cell-based. To be noted: Homo sapiens, Monocyte, JAK 1/2, read-out: Human IC50, IFNγ pSTAT1. On the procedure: (§1) IL-6 and Oncostatin M (OSM) induced STAT3 phosphorylation was assessed in the human erythroleukemia TF-1 cell line. Erythropoietin-induced STAT5 phosphorylation was assessed in the human UT-7 cell line. IL-2 and IL-15 induced STAT5 phosphorylation was assessed in activated human T-cells. Detection of phosphorylated STATs was accomplished with the SureFire pSTAT5 or pSTAT3 Assay kit (Perkin Elmer, Hopkinton, MA) per standard manufacturer’s protocol, with the exception of an overnight incubation following addition of donor beads before detection on the EnVision (Perkin Elmer, Hopkinton, MA). IFNγ induced STAT1 phosphorylation was assessed in the CD14+ monocyte population in human PBMC by flow cytometry. CD14 BV421 was purchased from BD Biosciences (San Jose, CA). STAT1 PE ([…]) was purchased from ThermoFisher Scientific (Waltham, MA). IL-4 and IL-13 induced STAT6 phosphorylation and IL-31 induced STAT3 phosphorylation were assessed in adult human epithelial keratinocytes (HEKa, ThermoFisher Scientific, Waltham, MA) by flow cytometry. STAT6 PE (pY641) and STAT3 PE (Y705) were purchased from BD Biosciences (San Jose, CA).

Test [2] relates to IL-6 induced pSTAT3, CD3+ whole blood. As to the kind of experiment: IL-6 signaling in human whole blood, CD3+ T-cell population. The class given is cell-based. To be noted: JAK 1.
The next test concerns IL-7 driven pSTAT5. Put plainly: Clinical ex vivo IL-7 stimulation of whole blood, pSTAT5. To be noted: healthy volunteers, 12 mg of upadacitinib, 1 h post dose. The class given is in vivo. Here is the method:
(§2) Recombinant human IL-6 (400 ng/ml), or IL-7 (400 ng/ml), (R&D Systems, Minneapolis, MN) was added to blood and incubated for 10 min at 37°C. Surface antibodies were added (CD14-APC, CD3-fluorescein isothiocyanate [FITC]; BD Biosciences, San Jose, CA) and incubated on ice for an additional 20 min. Samples were lysed (Lyse/Fix, BD Biosciences, San Jose, CA) and incubated for 10 min at 37°C. Samples were washed and stored at − 70°C. For intracellular staining, samples were thawed, washed, and resuspended in BD Perm buffer III (BD Biosciences, San Jose, CA) on ice for 30 min. Samples were washed and stained with pSTAT5-PE or pSTAT3-PE (BD Biosciences, San Jose, CA) for 60 min at room temperature and then analyzed immediately on a FACSCalibur. Geometric means were determined using FlowJo analysis software.

Test [3] relates to IL-6 induced pSTAT3, CD14+ whole blood. As to the kind of experiment: IL-6 signaling in human whole blood, CD14+ monocytic population. The class given is cell-based. Particulars: JAK 1.
The test system of a further test is reticulocyte deployment. As to the kind of experiment: Epo induced reticulocyte deployment assay. The class given is in vivo. To be noted: rat, Epo challenge, highest concentration tested. On the procedure:
Naïve male Lewis rats were injected intravenously with either PBS or 1000 IU of epoetin α (Procrit®, Janssen Products, LP, Horsham, PA) for two consecutive days. Reticulocytes were measured on day 4 by flow cytometry using thiozole orange as a dye as previously described.

For test [4], the system named is adjuvant induced arthritis. Put plainly: Rat adjuvant-induced arthritis (AIA) model. The class given is in vivo.
In test [5] the test system is IL-31 induced STAT3 phosphorylation. Put plainly: IL-31 induced STAT3 phosphorylation in HEKa. The class given is cell-based. To be noted: Homo sapiens, JAK 1/2, read-out: Human IC50, IL-31 pSTAT3. On the procedure:
as §1

The test system of test [6] is Oncostatin M (OSM) induced STAT3 phosphorylation. As to the kind of experiment: Oncostatin M induced STAT3 phosphorylation in TF-1 cells. The class given is cell-based. To be noted: Homo sapiens, JAK 1, N = 2, read-out: Human IC50, OSM pSTAT3. On the procedure:
as §1

For test [7], the system named is Erythropoietin-induced STAT5 phosphorylation. Put plainly: Erythropoietin-induced STAT5 phosphorylation in UT-7 cells. The class given is cell-based. To be noted: Homo sapiens; UT7 cells, JAK 2; read-out: Human IC50, Epo pSTAT5. Here is the method: as §1
Test [8] has as its system IL-13 induced STAT6 phosphorylation. As to the kind of experiment: IL-13 induced STAT6 phosphorylation in HEKa. The class given is cell-based. Particulars: Homo sapiens, JAK 1/TYK2, read-out: Human IC50, IL-13 pSTAT6. Here is the method: as §1
The subject of test [9] is IL-6 induced STAT3 phosphorylation. As to the kind of experiment: IL-6 induced STAT3 phosphorylation in TF-1 cells. The class given is cell-based. To be noted: Homo sapiens, JAK 1, read-out: Human IC50, IL-6 pSTAT3. On the procedure: as §1
For another test, the system named is IL-6 induced pSTAT3. As to the kind of experiment: Clinical ex vivo IL-6 stimulation of whole blood, pSTAT3. The class given is in vivo, healthy volunteers. On the procedure:
as §2

For test [10], the system named is IL-15 induced STAT5 phosphorylation. Put plainly: IL-15 induced STAT5 phosphorylation in activated T-cells. The class given is cell-based. To be noted: Homo sapiens, T-cell; T-blasts, JAK 1/3; read-out: Human IC50, IL-15 pSTAT5. Here is the method:
as §1

The subject of test [11] is IL-2 induced STAT5 phosphorylation. As to the kind of experiment: IL-2 induced STAT5 phosphorylation in activated T-cells. The class given is cell-based. Particulars: T-blasts, JAK 1/3, read-out: Human IC50, IL-2 pSTAT5. On the procedure: as §1

From PMC6390583 (BMC rheumatology, 2018) come the findings set out here.

Where two headings read alike, the source gives them in different places.

`CC[C@@H]1CN(C(=O)NCC(F)(F)F)C[C@@H]1c1cnc2cnc3[nH]ccc3n12` [upadacitinib, (3S,4R)-3-ethyl-4-(3H-imidazo [1,2-a]pyrrolo [2,3-e]pyrazin-8-yl)-N-(2,2,2-trifluoroethyl) pyrrolidine-1-carboxamide]: the IC50 stood at 19 nM in test [1]; 207 nM in test [2]; 78 nM in [3]; 3 nM in [5]; 1.6 nM in test [6]; 649 nM in test [7]. For the same molecule, the IC50 in test [8] was found to be 4 nM; in test [9], 11 nM; in test [10], 22 nM; in test [11] (Homo sapiens, T-cell), 13 nM; in test [11], 10 nM. Also, the “Inhibition of IL-7 driven pSTAT5” value with IL-7 driven pSTAT5 is listed as ~ 70%. In the test on reticulocyte deployment, the “Maximal inhibition of reticulocyte deployment” value is recorded as ~ 40%. Moreover, the Histological endpoints entry in [4] (3 and 10 mg/kg dose groups, data not shown) is “improved synovial hypertrophy, inflammation, cartilage damage and bone erosion”. Further, the “Reduction in paw swelling at clinical AUC exposures” value in test [4] (exposures for 6 mg BID and 12 mg BID clinical doses of upadacitinib) is listed as greater than 90%. Also, the “AUC60, AUC0-12 drug concentration necessary to achieve 60% inhibition of paw swelling” value in [4] (oral BID) came out at 83 ng·h/mL. Also, the “Effect on paw swelling” value in test [4] (oral, dosed from day 7) was “dose and exposure dependent reductions in paw swelling”. The inhibition at 3 mg with IL-6 induced pSTAT3 (Homo sapiens, 1 h) was roughly 50%. For the same molecule, the “Dose reaching maximal pSTAT3 inhibition” value with IL-6 induced pSTAT3 (healthy volunteers, IL-6 stimulation, 1 h post dose) was 36 mg.

In general, IC50 refers to the midpoint of a concentration-inhibition curve. The term inhibition denotes the percentage by which the read-out fell short of the control. A high value points to strong suppression.
